The nature of this series: Tentative identification of metabolites from α-MG by UPLC-MS/MS. The series is classed as in vivo. To be noted: mice after intravenous and oral α-MG; S9 fractions after 30-min incubation. The text has this: Probable metabolites of α-MG were identified using the simultaneous full scan MS, MRM and MS/MS modes in a Waters UPLC-XEVO TQ system (Waters Corporation, Milford, USA) to confirm the structures of any metabolites. […] Structural elucidation of the metabolites was based on the fragmentation patterns of parent ion from the MS/MS mode at a collision energy of 10 to 20 eV generating daughter ions. The mass transitions for α-MG was m/z 411.21 → 354.85 (collision energy of 20 eV and collision cell exit potential of 25 eV, respectively). The unknown masses were further analyzed in MS/MS (daughter scan) mode with the electrospray ionization interface used to generate positive and negative ions at a capillary voltage of 3.0 kV, source temperature of 350°C and desolvation gas temperature of 650°C. The MRM methods for identification of possible metabolites generated by phase I and/or II reactions were included.
These compounds were separated on a reversed-phase C18 column (XSELECT CSH, 2.1 mm × 100 mm i.d., 1.7-μm particle size; Waters, Ireland) with a flow rate of 0.35 mL/min. The mobile phase composition was started at 95: 5 (v/v) of distilled water containing 0.1% formic acid (A) and acetonitrile (B) and gradually changed to 35: 65 (v/v) for 30 min, and then switched back to 95: 5 (v/v) for 40 min.

Molecules are shown by their SMILES.

With `COc1c(O)cc2oc3c(O)c(O)c(CC=C(C)C)c(O)c3c(=O)c2c1CC=C(C)C` [M10], the “Source (samples in which detected)” value is “liver, small intestine, feces”.
As to `COc1c(O)cc2oc3cc(O)c4c(c3c(=O)c2c1CC=C(C)C)OC(C)(C)C=C4` [M8], the “Source (samples in which detected)” value is recorded as “urine, feces, liver, small intestine”.
In the case of `COc1c(O)cc2oc3cc(O)c(CC=C(C)C)c(O)c3c(=O)c2c1CC1OC1(C)C` (stereo not drawn) [M12], the “Source (samples in which detected)” value is given as “liver, small intestine, feces”.
For the compound `COc1c(O)cc2oc3cc4c(c(O)c3c(=O)c2c1CC=C(C)C)C=CC(C)(C)O4` [M7], the “Source (samples in which detected)” value is reported as “urine, feces, liver, small intestine”.
Regarding `COc1c(O)c(O)c2oc3cc(O)c(CC=C(C)C)c(O)c3c(=O)c2c1CC=C(C)C` [M11], the “Source (samples in which detected)” value is reported as “liver, small intestine, feces”.
In the case of `COc1c(O)cc2oc3cc(O)c(CC4OC4(C)C)c(O)c3c(=O)c2c1CC=C(C)C` (stereo not drawn) [M13], the “Source (samples in which detected)” value was “liver, small intestine, feces”.
